Results published in patent publication US20100056508A1, “AMINE DERIVATIVES AND THEIR USE IN BETA-2-ADRENORECEPTOR MEDIATED DISEASES” (ASTRAZENECA AB, priority 2006, published 2010).
Structures can show the parent of a compound that is named as a salt.

Key:
[1] = biological target: T1, Adrenergic β2 (Homo sapiens, UniProt P07550); assay: Adrenergic β2 mediated cAMP production in H292 cells (AlphaScreen cAMP detection); format: cell-based; set-up: key to β2 Int Act: fraction of formoterol maximum activity (formoterol = 1)
T1 construct: Adherent H292 cells were removed from tissue culture flasks; endogenous in cells; host or cells: H292 cells
Method in brief: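 H292 cells pre-treated 10 min with rolipram (300 μM final), then given agonist for 60 min at room temperature in HBSS/10 mM HEPES pH 7.4, 1.6% DMSO final. Lysate cAMP measured by AlphaScreen against a cAMP standard curve. Four-parameter fit gives pEC50; intrinsic activity relative to formoterol maximum.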

[2] = biological target: T2, recombinant human Dopamine Subtype D2s receptors (Homo sapiens, UniProt P14416); assay: Dopamine D2 selectivity assay, [3H]-spiperone binding to membranes; details: inhibition of [3H]-spiperone binding, read-out: D2 bind pIC50 (converted)
T2 construct: purchased Perkin Elmer
Method in brief: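 Human D2s receptor membranes incubated 2 h at room temperature with 0.16 nM [3H]-spiperone and test compound in HEPES buffer pH 7.4 (120 mM NaCl, 0.1% gelatin). Non-specific binding defined with 10 μM haloperidol; filter-bound radioactivity counted, pIC50 from four-parameter logistic fit.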

T1 sequence (P07550 whole entry): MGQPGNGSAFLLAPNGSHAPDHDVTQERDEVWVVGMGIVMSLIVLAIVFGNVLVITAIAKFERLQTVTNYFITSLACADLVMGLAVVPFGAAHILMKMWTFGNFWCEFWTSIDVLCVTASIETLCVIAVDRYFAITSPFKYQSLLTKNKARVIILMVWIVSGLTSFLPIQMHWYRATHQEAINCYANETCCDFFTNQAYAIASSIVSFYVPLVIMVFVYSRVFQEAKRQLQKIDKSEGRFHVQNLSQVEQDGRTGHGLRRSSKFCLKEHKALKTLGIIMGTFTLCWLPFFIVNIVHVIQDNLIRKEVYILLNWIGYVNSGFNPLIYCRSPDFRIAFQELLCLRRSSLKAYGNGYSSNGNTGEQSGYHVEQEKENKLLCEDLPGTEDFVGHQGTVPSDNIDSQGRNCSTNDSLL
T2 sequence (P14416 1-414 isoform P14416-2): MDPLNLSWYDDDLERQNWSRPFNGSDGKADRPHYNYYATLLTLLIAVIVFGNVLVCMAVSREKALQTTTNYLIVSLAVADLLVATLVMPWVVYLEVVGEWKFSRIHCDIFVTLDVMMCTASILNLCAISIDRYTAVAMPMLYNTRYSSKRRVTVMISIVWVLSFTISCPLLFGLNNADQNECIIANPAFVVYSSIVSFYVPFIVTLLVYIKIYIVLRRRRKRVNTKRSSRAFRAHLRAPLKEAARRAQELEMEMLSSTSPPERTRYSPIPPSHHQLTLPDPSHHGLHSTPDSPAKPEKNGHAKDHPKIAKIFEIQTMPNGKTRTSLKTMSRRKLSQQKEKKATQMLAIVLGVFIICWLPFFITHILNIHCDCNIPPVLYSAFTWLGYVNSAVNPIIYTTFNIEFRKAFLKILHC

β2 Int Act ([1]; Intrinsic Activity as a fraction relative to the maximum activity determined for formoterol): 0.97 | EC50 ([1]; cAMP production, 60 minutes at room temperature, 300 μM rolipram, read-out: β2 pEC50 (converted)): 2 nM | IC50 [2]: 2000 nM
Compound: O=C1COc2c(CCNCCN(C(=O)CCOCCc3cccc(Cl)c3)C3CCCCC3)ccc(O)c2N1 [Example 77, 3-(3-Chlorophenethoxy)-N-cyclohexyl-N-(2-(2-(5-hydroxy-3-oxo-3,4-dihydro-2H-benzo[b][1,4]oxazin-8-yl)ethylamino)ethyl)propanamide trifluoroacetate]
